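In this assay, cells in 96-well plates receive the compound at five concentrations for 48 hours. Endpoints are linearly interpolated between the surrounding concentrations. GI50 marks 50% less growth.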 Active and inactive are the calls of the source. Rule as the data show it: active = GI50 up to about 1.1 µM and inactive = higher.
Columns and labels:
Test in all cases: NCI-60 cell line screen, 48 h
MOLT-4 = system: MOLT-4
SNB-75 = system: SNB-75
NCI-H460 = system: NCI-H460
SK-MEL-2 = system: SK-MEL-2
ACHN = system: ACHN
DMS-114 = system: DMS-114
SF-268 = system: SF-268
UACC-257 = system: UACC-257
RPMI-8226 = system: RPMI-8226
HOP-18 = system: HOP-18
NCI-H226 = system: NCI-H226
M19-MEL = system: M19-MEL
M14 = system: M14
SW-620 = system: SW-620
HCT-116 = system: HCT-116
OVCAR-4 = system: OVCAR-4
OVCAR-3 = system: OVCAR-3
SR = system: SR
NCI-H23 = system: NCI-H23
SK-OV-3 = system: SK-OV-3
UO-31 = system: UO-31
OVCAR-8 = system: OVCAR-8
TK-10 = system: TK-10
SF-295 = system: SF-295
HT-29 = system: HT-29
Malme-3M = system: Malme-3M
HL-60 = system: HL-60
KM-20L2 = system: KM-20L2
DLD-1 = system: DLD-1
SNB-78 = system: SNB-78
COLO 205 = system: COLO 205
LXFL 529 = system: LXFL 529
HCT-15 = system: HCT-15
HCC 2998 = system: HCC 2998
CAKI-1 = system: CAKI-1
UACC-62 = system: UACC-62
OVCAR-5 = system: OVCAR-5
LOX IMVI = system: LOX IMVI
K562 = system: K562
786-0 = system: 786-0
HOP-92 = system: HOP-92
DMS-273 = system: DMS-273
SF-539 = system: SF-539
SK-MEL-5 = system: SK-MEL-5
SN12C = system: SN12C
KM12 = system: KM12
A498 = system: A498
IGROV-1 = system: IGROV-1
EKVX = system: EKVX
NCI-H522 = system: NCI-H522
CCRF-CEM = system: CCRF-CEM
SK-MEL-28 = system: SK-MEL-28
A549 = system: A549
RXF 393 = system: RXF 393
U-251 = system: U-251
SNB-19 = system: SNB-19
HOP-62 = system: HOP-62
MCF7 = system: MCF7
NCI/ADR-RES = system: NCI/ADR-RES

With `Cc1ccc(SC(C)/C=C/NNC2=NN=C(c3ccccc3)C(c3ccccc3)N2)cc1` (stereo not given) the GI50 (MOLT-4) was 13.4 µM (inactive), the GI50 (SNB-75) was 20.7 µM (inactive) and the GI50 (NCI-H460) was 33.1 µM (inactive). For the same molecule, the GI50 (SK-MEL-2) was 23.4 µM (inactive), the GI50 (ACHN) was 29.6 µM (inactive) and the GI50 (DMS-114) was 28.8 µM (inactive). For the same molecule, the GI50 (SF-268) was 28 µM (inactive), the GI50 (UACC-257) was 31.5 µM (inactive) and the GI50 (RPMI-8226) was 27.9 µM (inactive). The GI50 (HOP-18) was 24.1 µM (inactive), the GI50 (NCI-H226) was 29 µM (inactive) and the GI50 (M19-MEL) was 36.6 µM (inactive). The GI50 (M14) was 38 µM (inactive), the GI50 (SW-620) was 46.5 µM (inactive) and the GI50 (HCT-116) was 39.6 µM (inactive). The GI50 (OVCAR-4) was 29.1 µM (inactive), the GI50 (OVCAR-3) was 25.5 µM (inactive) and the GI50 (SR) was 11.5 µM (inactive). For the same molecule, the GI50 (NCI-H23) was 48.9 µM (inactive), the GI50 (SK-OV-3) was 32.2 µM (inactive) and the GI50 (UO-31) was 12.4 µM (inactive). The GI50 (OVCAR-8) was 31.7 µM (inactive), the GI50 (TK-10) was 75.7 µM (inactive) and the GI50 (SF-295) was 30.3 µM (inactive). The GI50 (HT-29) was 13.3 µM (inactive), the GI50 (Malme-3M) was 49.8 µM (inactive) and the GI50 (HL-60) was 13 µM (inactive). For the same molecule, the GI50 (KM-20L2) was 14 µM (inactive), the GI50 (DLD-1) was 27.4 µM (inactive) and the GI50 (SNB-78) was 66.7 µM (inactive). The GI50 (COLO 205) was 36.1 µM (inactive), the GI50 (LXFL 529) was 25.8 µM (inactive) and the GI50 (HCT-15) was 26.9 µM. For the same molecule, the GI50 (HCC 2998) was 28 µM (inactive), the GI50 (CAKI-1) was 13.5 µM (inactive) and the GI50 (UACC-62) was 14.9 µM (inactive). For the same molecule, the GI50 (OVCAR-5) was 21.5 µM (inactive), the GI50 (LOX IMVI) was 25.7 µM (inactive) and the GI50 (K562) was 36.9 µM (inactive). For the same molecule, the GI50 (786-0) was 39.6 µM (inactive), the GI50 (HOP-92) was 20 µM (inactive) and the GI50 (DMS-273) was 32.5 µM (inactive). The GI50 (SF-539) was 34.2 µM (inactive), the GI50 (SK-MEL-5) was 14.6 µM (inactive) and the GI50 (SN12C) was 36.4 µM (inactive). The GI50 (KM12) was 27.5 µM (inactive), the GI50 (A498) was 40.4 µM (inactive) and the GI50 (IGROV-1) was 31.1 µM (inactive). The GI50 (EKVX) was 44.8 µM (inactive), the GI50 (NCI-H522) was 23.1 µM (inactive) and the GI50 (CCRF-CEM) was 21.5 µM (inactive). The GI50 (SK-MEL-28) was 76.4 µM (inactive) and the GI50 (A549) was 33.1 µM (inactive).
For `CCOC(=O)C1=C(Nc2ccc(Br)cc2)OCC1=O`, the GI50 (MOLT-4) was > 100 µM (inactive), the GI50 (RXF 393) was > 100 µM (inactive) and the GI50 (SNB-75) was > 100 µM (inactive). The GI50 (NCI-H460) was > 100 µM (inactive), the GI50 (SK-MEL-2) was > 100 µM (inactive) and the GI50 (ACHN) was > 100 µM (inactive). The GI50 (SF-268) was > 100 µM (inactive), the GI50 (UACC-257) was > 100 µM (inactive) and the GI50 (HOP-18) was > 100 µM (inactive). The GI50 (NCI-H226) was > 100 µM (inactive), the GI50 (M19-MEL) was > 100 µM (inactive) and the GI50 (M14) was > 100 µM (inactive). The GI50 (SW-620) was > 100 µM (inactive), the GI50 (HCT-116) was > 100 µM (inactive) and the GI50 (OVCAR-4) was > 100 µM (inactive). The GI50 (OVCAR-3) was > 100 µM (inactive), the GI50 (SR) was > 100 µM (inactive) and the GI50 (U-251) was > 100 µM (inactive). For the same molecule, the GI50 (NCI-H23) was > 100 µM (inactive), the GI50 (SK-OV-3) was > 100 µM (inactive) and the GI50 (UO-31) was > 100 µM (inactive). The GI50 (OVCAR-8) was > 100 µM (inactive), the GI50 (TK-10) was > 100 µM (inactive) and the GI50 (SF-295) was > 100 µM (inactive). The GI50 (HT-29) was > 100 µM (inactive), the GI50 (Malme-3M) was > 100 µM (inactive) and the GI50 (HL-60) was 17.9 µM (inactive). The GI50 (KM-20L2) was > 100 µM (inactive), the GI50 (DLD-1) was > 100 µM (inactive) and the GI50 (SNB-78) was > 100 µM (inactive). For the same molecule, the GI50 (SNB-19) was > 100 µM (inactive), the GI50 (COLO 205) was > 100 µM (inactive) and the GI50 (LXFL 529) was > 100 µM (inactive). For the same molecule, the GI50 (HCT-15) was greater than 100 µM, the GI50 (HCC 2998) was > 100 µM (inactive) and the GI50 (CAKI-1) was > 100 µM (inactive). For the same molecule, the GI50 (UACC-62) was > 100 µM (inactive), the GI50 (786-0) was > 100 µM (inactive) and the GI50 (HOP-92) was > 100 µM (inactive). The GI50 (DMS-273) was > 100 µM (inactive), the GI50 (SF-539) was > 100 µM (inactive) and the GI50 (SK-MEL-5) was > 100 µM (inactive). For the same molecule, the GI50 (SN12C) was > 100 µM (inactive), the GI50 (KM12) was > 100 µM (inactive) and the GI50 (A498) was > 100 µM (inactive). For the same molecule, the GI50 (HOP-62) was > 100 µM (inactive), the GI50 (IGROV-1) was > 100 µM (inactive) and the GI50 (EKVX) was > 100 µM (inactive). For the same molecule, the GI50 (NCI-H522) was > 100 µM (inactive), the GI50 (CCRF-CEM) was > 100 µM (inactive) and the GI50 (SK-MEL-28) was > 100 µM (inactive). The GI50 (A549) was > 100 µM (inactive).
For `C=C(C)C(=O)O[C@H]1CC2=C[C@@H](C[C@@]3(C)O[C@@H]3[C@H]3OC(=O)C(=C)[C@@H]31)OC2=O` [ELEPHANTOPIN], the GI50 (MOLT-4) was 0.412 µM (active), the GI50 (MCF7) was 1.14 µM (inactive) and the GI50 (RXF 393) was 0.369 µM (active). The GI50 (NCI/ADR-RES) was 1.14 µM (inactive), the GI50 (SNB-75) was 7.98 µM (inactive) and the GI50 (NCI-H460) was 4.86 µM (inactive). For the same molecule, the GI50 (SK-MEL-2) was 4.34 µM (inactive), the GI50 (DMS-114) was 4.47 µM (inactive) and the GI50 (SF-268) was 0.818 µM (active). For the same molecule, the GI50 (UACC-257) was 1.85 µM (inactive), the GI50 (HOP-18) was 4.33 µM (inactive) and the GI50 (NCI-H226) was 10.2 µM (inactive). For the same molecule, the GI50 (M19-MEL) was 2.49 µM (inactive), the GI50 (SW-620) was 0.695 µM (active) and the GI50 (HCT-116) was 1.16 µM (inactive). For the same molecule, the GI50 (OVCAR-4) was 2.61 µM (inactive), the GI50 (OVCAR-3) was 1.2 µM (inactive) and the GI50 (U-251) was 6.49 µM (inactive). For the same molecule, the GI50 (NCI-H23) was 1.87 µM (inactive), the GI50 (SK-OV-3) was 11.5 µM (inactive) and the GI50 (UO-31) was 6.07 µM (inactive). The GI50 (OVCAR-8) was 0.505 µM (active), the GI50 (SF-295) was 5.57 µM (inactive) and the GI50 (HT-29) was 2.48 µM (inactive). For the same molecule, the GI50 (Malme-3M) was 2.12 µM (inactive), the GI50 (HL-60) was 0.486 µM (active) and the GI50 (KM-20L2) was 4.69 µM (inactive). For the same molecule, the GI50 (DLD-1) was 0.897 µM (active), the GI50 (SNB-78) was 2.09 µM (inactive) and the GI50 (SNB-19) was 13.3 µM (inactive). The GI50 (COLO 205) was 0.885 µM (active), the GI50 (HCT-15) was 0.927 µM and the GI50 (HCC 2998) was 5.11 µM (inactive). The GI50 (CAKI-1) was 1.86 µM (inactive), the GI50 (UACC-62) was 3.5 µM (inactive) and the GI50 (OVCAR-5) was 6.55 µM (inactive). The GI50 (LOX IMVI) was 0.31 µM (active), the GI50 (HOP-92) was 1.13 µM (inactive) and the GI50 (DMS-273) was 2.79 µM (inactive). For the same molecule, the GI50 (SF-539) was 3.57 µM (inactive), the GI50 (SK-MEL-5) was 4.29 µM (inactive) and the GI50 (SN12C) was 4.03 µM (inactive). For the same molecule, the GI50 (KM12) was 3.31 µM (inactive), the GI50 (A498) was 5.13 µM (inactive) and the GI50 (HOP-62) was 52.5 µM (inactive). The GI50 (IGROV-1) was 4.65 µM (inactive), the GI50 (EKVX) was 2.08 µM (inactive) and the GI50 (NCI-H522) was 0.593 µM (active). The GI50 (SK-MEL-28) was 1.71 µM (inactive) and the GI50 (A549) was 7.33 µM (inactive).

Source: ChEMBL document CHEMBL1201862, “PubChem BioAssay data set” (2004)
